# Reference: patent US9957270B2, “Fused pyrimidine-based hydroxamate derivatives” (Agency for Science, Technology and Research, priority 2014, dated 2018)
# Like-named read-outs stand apart in the source and are kept apart here.
# Columns and labels:
# [1] = tested on: BxPC-3; test: Anti-proliferative assay (cellular IC50), BxPC-3; details: Homo sapiens, BXPC-3, read-out: In Vitro Cellular IC50 BxPC-3
# Protocol: (§1) Cells were cultivated at 37° C., 5% CO2 in media containing 10% FBS and 2 mM glutamine Cells were routinely monitored with MycoAlert™ PLUS Mycoplasma Detection Kit (Lonza Walkersville, Inc.) to make sure they were mycoplasma free. Antibiotics (100 U/mL of penicillin and 100 μg/mL of streptomycin) were only added to the media used for compound dilution and cells in 96-well assay plates.
# (§2) For a typical screening experiment, cells (100 μL/well) are inoculated into 96 well microtiter plates at plating densities ranging from 2,000 to 30,000 cells/well depending on the doubling time of individual cell lines and assay linearity. […] Suspension cells are treated with test compounds immediately after cell inoculation.
# (§3) Test compounds are serially diluted (3-fold or 4-fold, 8-concentration) using the same media and added to the plates (15 to 25 μL/well). After 72 h of cultivation, the plates are assayed for cell cytotoxicity/viability by using the following two methods.
# (§4) Cells in plates are fixed with cold trichloroacetic acid (TCA) (50% w/v in DI water, 1/4 volume of the medium in each well), and incubated at 4° C. for 1 h (adherent cells) or 2 h (suspension cells). The plates are washed 5 times (tap water×3, DI water×2) and air-dried. SRB solution 0.4% (w/v) in 1% acetic acid is added to each well (60 μL/well) and the plates are incubated at room temperature for 30 min, then washed with 1% acetic acid solution 4 times, and air-dried.
# (§5) The plates are added CellTiter-Glo® Reagent (95 μL/well) and read the luminescence on a BioTek H4 reader per manufacture's protocol.
# (§6) The raw data are processed using BioTek's Software Gen5 (v2.03.01) to generate inhibitory IC50 values.
# [2] = tested on: Ramos; test: Anti-proliferative assay (cellular IC50), Ramos; details: Homo sapiens, read-out: In Vitro Cellular IC50 Ramos
# Protocol: as §1, §2, §3, §4, §5, §6
# [3] = tested on: MDA-MB-468; test: Anti-proliferative assay (cellular IC50), MDA-MB-468; details: Homo sapiens, MDA-MB-468, read-out: In Vitro Cellular IC50 MDA-MB-468
# Protocol: as §1, §2, §3, §4, §5, §6
# [4] = tested on: MV-4-11 cells; test: Caspase activity assay, MV-4-11 cells; assay type: cell-based, human; details: MV-4-11 cells; for EC50: maximal activity at 24 h, read-out: EC50 induction of caspase activity
# Protocol: Cells are cultivated and treated with test compounds in 96-well plates as described in the above Cell Culture and Anti-Proliferative Assays section. […] The incubation time can be extended up to overnight (18 h) if the Caspase activity is low. Staurosporine is used as positive control.
# Y Axis is expressed as Mean±SD if applicable.
# [5] = tested on: SUP-B15; test: Anti-proliferative assay (cellular IC50), SUP-B15; details: Homo sapiens, SUP-B15, read-out: In Vitro Cellular IC50 SUP-B15
# Protocol: as §1, §2, §3, §4, §5, §6
# [6] = tested on: 4T1; test: cells; details: Mus musculus, 4T1, read-out: In Vitro Cellular IC50 4T1
# Protocol: as §1, §2, §3, §4, §5, §6
# [7] = tested on: NCI-H522; test: Anti-proliferative assay (cellular IC50), NCI-H522; details: Homo sapiens, NCI-H522, read-out: In Vitro Cellular IC50 NCI-H522
# Protocol: as §1, §2, §3, §4, §5, §6
# [8] = tested on: MOLT-4; test: Anti-proliferative assay (cellular IC50), MOLT-4; details: Homo sapiens
# [9] = tested on: BT474; test: Anti-proliferative assay (cellular IC50), BT474; details: Homo sapiens, BT-474, read-out: In Vitro Cellular IC50 BT474
# Protocol: as §1, §2, §3, §4, §5, §6
# [10] = tested on: Pfeiffer; test: Anti-proliferative assay (cellular IC50), Pfeiffer; details: Homo sapiens, read-out: In Vitro Cellular IC50 Pfeiffer
# Protocol: as §1, §2, §3, §4, §5, §6
# [11] = tested on: MDA-MB-231; test: Anti-proliferative assay (cellular IC50), MDA-MB-231; details: Homo sapiens, MDA-MB-231, read-out: In Vitro Cellular IC50 MDA-MB-231
# Protocol: as §1, §2, §3, §4, §5, §6
# [12] = tested on: U87 MG; test: Anti-proliferative assay (cellular IC50), U87 MG; details: Homo sapiens, U-87 MG, read-out: In Vitro Cellular IC50 U87 MG
# Protocol: as §1, §2, §3, §4, §5, §6
# [13] = tested on: ACHN; test: Anti-proliferative assay (cellular IC50), ACHN; details: Homo sapiens, read-out: In Vitro Cellular IC50 ACHN
# Protocol: as §1, §2, §3, §4, §5, §6
# [14] = tested on: PANC-1; test: Anti-proliferative assay (cellular IC50), PANC-1; details: Homo sapiens, PANC-1, read-out: In Vitro Cellular IC50 PANC-1
# Protocol: as §1, §2, §3, §4, §5, §6
# [15] = tested on: COLO 205; test: cells; details: Homo sapiens
# Protocol: as §1, §2, §3, §4, §5, §6
# [16] = tested on: HCT 116; test: cells; details: Homo sapiens
# Protocol: as §1, §2, §3, §4, §5, §6
# [17] = tested on: K-562; test: Anti-proliferative assay (cellular IC50), K-562; details: Homo sapiens
# Protocol: as §1, §2, §3, §4, §5, §6
# [18] = tested on: PC-3; test: Anti-proliferative assay (cellular IC50), PC-3; details: Homo sapiens
# Protocol: as §1, §2, §3, §4, §5, §6
# [19] = tested on: MV-4-11; test: cells; details: Homo sapiens
# [20] = tested on: MDA-MB-436; test: Anti-proliferative assay (cellular IC50), MDA-MB-436; details: Homo sapiens, MDA-MB-436, read-out: In Vitro Cellular IC50 MDA-MB-436
# Protocol: as §1, §2, §3, §4, §5, §6
# [21] = tested on: U138MG; test: Anti-proliferative assay (cellular IC50), U138MG; details: Homo sapiens, U138-MG, read-out: In Vitro Cellular IC50 U138MG
# Protocol: as §1, §2, §3, §4, §5, §6
# [22] = tested on: HL-60; test: Anti-proliferative assay (cellular IC50), HL-60; details: Homo sapiens, HL-60, read-out: In Vitro Cellular IC50 HL-60
# Protocol: as §1, §2, §3, §4, §5, §6
# [23] = tested on: SK-HEP1; test: Anti-proliferative assay (cellular IC50), SK-HEP1; details: Homo sapiens, SK-HEP1, read-out: In Vitro Cellular IC50 SK-HEP1
# Protocol: as §1, §2, §3, §4, §5, §6
# [24] = tested on: A375; test: Anti-proliferative assay (cellular IC50), A375; details: Homo sapiens, A-375, read-out: In Vitro Cellular IC50 A375
# Protocol: as §1, §2, §3, §4, §5, §6
# [25] = tested on: RPMI-8226; test: Anti-proliferative assay (cellular IC50), RPMI-8226; details: Homo sapiens, RPMI-8226, read-out: In Vitro Cellular IC50 RPMI-8226
# Protocol: as §1, §2, §3, §4, §5, §6
# [26] = tested on: MCF7; test: Anti-proliferative assay (cellular IC50), MCF7; details: Homo sapiens
# [27] = tested on: HepG2; test: Anti-proliferative assay (cellular IC50), HepG2; details: Homo sapiens
# Protocol: as §1, §2, §3, §4, §5, §6
# [28] = MOLT-4, 72 h, read-out: In Vitro Cellular IC50 MOLT-4
# [29] = MOLT-4, read-out: In Vitro Cellular IC50 MOLT-4
# [30] = COLO 205, 72 h, read-out: In Vitro Cellular IC50 COLO 205
# [31] = COLO 205, read-out: In Vitro Cellular IC50 COLO 205
# [32] = HCT-116, 72 h, read-out: In Vitro Cellular IC50 HCT 116
# [33] = HCT-116, read-out: In Vitro Cellular IC50 HCT 116
# [34] = K562, 72 h, read-out: In Vitro Cellular IC50 K-562
# [35] = K562, read-out: In Vitro Cellular IC50 K-562
# [36] = PC-3, 72 h, read-out: In Vitro Cellular IC50 PC-3
# [37] = PC-3, read-out: In Vitro Cellular IC50 PC-3
# [38] = MV4-11, 72 h, read-out: In Vitro Cellular IC50 MV-4-11
# [39] = MV4-11, read-out: In Vitro Cellular IC50 MV-4-11
# [40] = MCF7, 72 h, read-out: In Vitro Cellular IC50 MCF7
# [41] = MCF7, read-out: In Vitro Cellular IC50 MCF7
# [42] = HepG2, 72 h, read-out: In Vitro Cellular IC50 HepG2
# [43] = HepG2, read-out: In Vitro Cellular IC50 HepG2
SMILES,IC50 [1] [µM],IC50 [2] [µM],IC50 [3] [µM],IC50 [5] [µM],IC50 [6] [µM],IC50 [7] [µM],"IC50 [8, 28] [µM]","IC50 [8, 29] [µM]",IC50 [9] [µM],IC50 [10] [µM],IC50 [11] [µM],IC50 [12] [µM],IC50 [13] [µM],IC50 [14] [µM],"IC50 [15, 30] [µM]","IC50 [15, 31] [µM]","IC50 [16, 32] [µM]","IC50 [16, 33] [µM]","IC50 [17, 34] [µM]","IC50 [17, 35] [µM]",also measured
CC(C)n1cnc2c(-c3cccc(OCCCC(=O)NO)c3)nc(N3CCOCC3)nc21 [compound 1],0.5 to 2,< 0.5,0.5 to 2,< 0.5,0.5 to 2,0.5 to 2,< 0.5,< 0.5,0.5 to 2,< 0.5,0.5 to 2,0.5 to 2,0.5 to 2,0.5 to 2,0.5 to 2,0.5 to 2,< 0.5,< 0.5,0.5 to 2,0.5 to 2,"Induction of caspase activity (comparison) [4]: more potent than vorinostat; EC50 [4]: 0.52 µM; IC50 [18, 36]: 0.5 to 2 µM; IC50 [18, 37]: 0.5 to 2 µM; IC50 [19, 38]: < 0.5 µM; IC50 [19, 39]: < 0.5 µM; IC50 [20]: 0.5 to 2 µM; IC50 [21]: 0.5 to 2 µM; IC50 [22]: < 0.5 µM; IC50 [23]: 0.5 to 2 µM; IC50 [24]: 0.5 to 2 µM; IC50 [25]: < 0.5 µM; IC50 [26, 40]: 0.5 to 2 µM; IC50 [26, 41]: 0.5 to 2 µM; IC50 [27, 42]: 0.5 to 2 µM; IC50 [27, 43]: 0.5 to 2 µM"
"CS(=O)(=O)N1CCN(Cc2cc3nc(-c4cccc5[nH]ncc45)nc(N4CCOCC4)c3s2)CC1 [GDC-0941, reference compound]",0.5 to 2,2 to 10,2 to 10,2 to 10,2 to 10,> 10,< 0.5,< 0.5,< 0.5,< 0.5,> 10,2 to 10,0.5 to 2,0.5 to 2,0.5 to 2,0.5 to 2,0.5 to 2,2 to 10,> 10,> 10,"EC50 ([4]; Homo sapiens, MV4-11): 12.7 µM; Induction of caspase activity (comparison) [4]: very weak activity and potency; IC50 [18, 36]: 0.5 to 2 µM; IC50 [18, 37]: 0.5 to 2 µM; IC50 [19, 38]: 0.5 to 2 µM; IC50 [19, 39]: 0.5 to 2 µM; IC50 [20]: 0.5 to 2 µM; IC50 [21]: 0.5 to 2 µM; IC50 [22]: 0.5 to 2 µM; IC50 [23]: 2 to 10 µM; IC50 [24]: 0.5 to 2 µM; IC50 [25]: 2 to 10 µM; IC50 [26, 40]: < 0.5 µM; IC50 [26, 41]: < 0.5 µM; IC50 [27, 42]: > 10 µM; IC50 [27, 43]: > 10 µM"
CCn1c(CN(C)Cc2ccc(C(=O)NO)cc2)nc2c(N3CCOCC3)nc(-c3cnc(N)nc3)nc21 [compound 7],0.5 to 2,0.5 to 2,< 0.5,< 0.5,2 to 10,2 to 10,0.5 to 2,0.5 to 2,< 0.5,< 0.5,2 to 10,2 to 10,2 to 10,2 to 10,0.5 to 2,0.5 to 2,0.5 to 2,0.5 to 2,0.5 to 2,0.5 to 2,"IC50 [18, 36]: 0.5 to 2 µM; IC50 [18, 37]: 0.5 to 2 µM; IC50 [19, 38]: 0.5 to 2 µM; IC50 [19, 39]: 0.5 to 2 µM; IC50 [20]: 2 to 10 µM; IC50 [22]: 0.5 to 2 µM; IC50 [23]: 0.5 to 2 µM; IC50 [24]: 2 to 10 µM; IC50 [25]: 0.5 to 2 µM; IC50 [26, 40]: < 0.5 µM; IC50 [26, 41]: < 0.5 µM; IC50 [27, 42]: 0.5 to 2 µM; IC50 [27, 43]: 0.5 to 2 µM"
